Key:
[1] = biological target: T1, Adenosine receptor A3 (Homo sapiens, UniProt P0DMS8); assay type: cell membranes, CHO-K1, Membrane;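 also: radioligand binding assay with AB-MECA serving as the labeled ligand; in other assays of this panel Not Active means under 50% inhibition at 10 µM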
T1 sequence (P0DMS8 whole entry): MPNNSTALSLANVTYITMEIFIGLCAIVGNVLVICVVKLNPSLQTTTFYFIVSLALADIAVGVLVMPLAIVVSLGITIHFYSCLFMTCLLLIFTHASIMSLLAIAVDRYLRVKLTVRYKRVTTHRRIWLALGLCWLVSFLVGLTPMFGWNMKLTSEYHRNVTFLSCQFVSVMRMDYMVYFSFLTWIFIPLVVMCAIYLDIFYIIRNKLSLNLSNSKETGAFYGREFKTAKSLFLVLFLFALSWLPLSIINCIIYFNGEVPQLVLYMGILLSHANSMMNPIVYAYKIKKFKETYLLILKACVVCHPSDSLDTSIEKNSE

[2] = biological target: T2, Adenosine receptor A1 (Homo sapiens, UniProt P30542); assay type: cell membranes, CHO, Membrane; conditions: cho;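 also: radioligand binding assay at the adenosine A1 receptor, with DPCPX serving as the labelled ligand; in other assays of this panel Not Active means under 50% inhibition at 10 µM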
T2 sequence (P30542 whole entry): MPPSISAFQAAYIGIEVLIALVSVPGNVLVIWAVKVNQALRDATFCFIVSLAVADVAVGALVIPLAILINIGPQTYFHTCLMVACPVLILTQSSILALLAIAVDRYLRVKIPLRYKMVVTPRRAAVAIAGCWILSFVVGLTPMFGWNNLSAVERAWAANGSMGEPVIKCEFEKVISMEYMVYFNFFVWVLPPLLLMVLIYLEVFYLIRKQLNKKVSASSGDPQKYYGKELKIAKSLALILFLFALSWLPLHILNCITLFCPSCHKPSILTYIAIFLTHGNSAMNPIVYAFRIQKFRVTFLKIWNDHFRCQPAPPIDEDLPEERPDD

[3] = DRUGMATRIX: Interleukin IL-1 radioligand binding (ligand: [125I] interleukin 1beta); assay type: cell membranes, Membrane; conditions: nih3t3; Not Active = under 50% inhibition at 10 µM
[4] = biological target: Melanocortin receptor 5 (Homo sapiens, UniProt P33032); assay type: cell membranes, HEK293, Membrane; conditions: hek293; also: in other assays of this panel Not Active means under 50% inhibition at 10 µM
Sequence of Melanocortin receptor 5 (P33032 whole entry): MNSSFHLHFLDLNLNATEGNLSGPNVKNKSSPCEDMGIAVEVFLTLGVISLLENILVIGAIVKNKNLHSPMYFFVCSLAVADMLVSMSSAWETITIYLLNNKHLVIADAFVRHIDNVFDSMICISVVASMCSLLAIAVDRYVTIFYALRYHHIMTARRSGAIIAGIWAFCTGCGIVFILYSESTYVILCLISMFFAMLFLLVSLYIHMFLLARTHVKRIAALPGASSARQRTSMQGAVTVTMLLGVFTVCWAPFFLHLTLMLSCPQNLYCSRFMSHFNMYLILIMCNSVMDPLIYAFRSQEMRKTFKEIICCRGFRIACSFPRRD

[5] = biological target: Cytochrome P450 2E1 (Homo sapiens, UniProt P05181); conditions: bti-tn-5b1-4; also: in other assays of this panel Not Active means under 50% inhibition at 10 µM
Sequence of Cytochrome P450 2E1 (P05181 whole entry): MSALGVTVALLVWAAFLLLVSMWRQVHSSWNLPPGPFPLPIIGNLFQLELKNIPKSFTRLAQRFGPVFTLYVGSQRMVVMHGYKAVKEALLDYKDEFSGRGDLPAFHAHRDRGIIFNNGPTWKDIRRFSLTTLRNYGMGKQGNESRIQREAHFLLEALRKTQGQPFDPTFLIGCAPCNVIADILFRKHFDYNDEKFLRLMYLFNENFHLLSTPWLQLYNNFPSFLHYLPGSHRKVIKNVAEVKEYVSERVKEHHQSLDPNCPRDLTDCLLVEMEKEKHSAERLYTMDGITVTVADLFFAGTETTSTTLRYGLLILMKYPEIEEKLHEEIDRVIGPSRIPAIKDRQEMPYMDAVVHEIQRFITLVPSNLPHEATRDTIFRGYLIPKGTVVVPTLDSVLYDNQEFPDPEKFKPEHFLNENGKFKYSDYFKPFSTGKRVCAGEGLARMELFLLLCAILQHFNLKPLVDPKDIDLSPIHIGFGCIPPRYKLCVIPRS

[6] = DRUGMATRIX: Tumor Necrosis Factor (TNF), Non-Selective radioligand binding (ligand: [125I] TNF-alpha); assay type: cell membranes, Membrane; conditions: u-937; Not Active = under 50% inhibition at 10 µM
[7] = DRUGMATRIX: Atrial Natriuretic Factor (ANF) radioligand binding (ligand: [125I] ANF (rat)); assay type: cell membranes, Cavia porcellus, Dunkin-Hartley, Adrenal gland, Membrane; conditions: Not Active = under 50% inhibition at 10 µM

Row | SMILES | IC50 ([1]; cho-k1) | IC50 [2] | IC50 [3] | Ki [3] | IC50 [4] | IC50 [5] | Ki [5] | IC50 [6] | Ki [6] | IC50 [7] | Ki [7] | IC50 ([1]; read-out: IC50) | Ki ([1]; read-out: Ki) | Ki ([1]; cho-k1) | Ki [2] | Ki [4]
1 | CC(C)CN(C[C@@H](O)[C@H](Cc1ccccc1)NC(=O)O[C@H]1CCOC1)S(=O)(=O)c1ccc(N)cc1 | Not Active | Not Active | Not Active | Not Active | Not Active | Not Active | Not Active | Not Active | Not Active | Not Active | Not Active | – | – | – | – | –
2 | c1ccc(Nc2ccc(Nc3ccccc3)cc2)cc1 | Not Active | Not Active | Not Active | Not Active | Not Active | Not Active | Not Active | Not Active | Not Active | Not Active | Not Active | – | – | – | – | –
3 | COc1cc2c3cc1Oc1cc(ccc1O)C[C@@H]1c4c(cc(OC)c(O)c4Oc4ccc(cc4)C[C@@H]3N(C)CC2)CC[N+]1(C)C.[Cl-] | Not Active | Not Active | Not Active | Not Active | Not Active | Not Active | Not Active | Not Active | Not Active | Not Active | Not Active | – | – | – | – | –
4 | NC(=O)N1c2ccccc2CCc2ccccc21 | Not Active | Not Active | Not Active | Not Active | Not Active | Not Active | Not Active | Not Active | Not Active | Not Active | Not Active | – | – | – | – | –
5 | O=C1CC[C@@H](N2C(=O)c3ccccc3C2=O)C(=O)N1 | Not Active | Not Active | Not Active | Not Active | Not Active | Not Active | Not Active | Not Active | Not Active | Not Active | Not Active | – | – | – | – | –
6 | Cc1onc(O)c1CC(N)C(=O)O (racemic) [(R,S)-AMPA] | Not Active | Not Active | Not Active | Not Active | Not Active | Not Active | Not Active | Not Active | Not Active | Not Active | Not Active | – | – | – | – | –
7 | Cc1ccc2cc3c(ccc4ccccc43)c3c2c1CC3 [3-METHYLCHOLANTHRENE] | – | Not Active | Not Active | Not Active | Not Active | Not Active | Not Active | Not Active | Not Active | Not Active | Not Active | 5.54 µM | 3.13 µM | – | – | –
8 | CC[C@@]1(O)C[C@H](O[C@H]2C[C@H](N(C)C)[C@H](O[C@H]3C[C@H](O)[C@H](O[C@H]4CCC(=O)[C@H](C)O4)[C@H](C)O3)[C@H](C)O2)c2c(cc3c(c2O)C(=O)c2c(O)cccc2C3=O)[C@H]1C(=O)OC [ACLARUBICIN] | Not Active | Not Active | Not Active | Not Active | Not Active | Not Active | Not Active | Not Active | Not Active | Not Active | Not Active | – | – | – | – | –
9 | Nc1nc2c(ncn2COCCO)c(=O)[nH]1 [ACYCLOVIR] | Not Active | Not Active | Not Active | Not Active | Not Active | Not Active | Not Active | Not Active | Not Active | Not Active | Not Active | – | – | – | – | –
10 | Cc1c(C)c2c(c(C)c1O)CC[C@@](C)(CCC[C@H](C)CCC[C@H](C)CCCC(C)C)O2 [ALPHA-TOCOPHEROL] | Not Active | Not Active | Not Active | Not Active | Not Active | Not Active | Not Active | Not Active | Not Active | Not Active | Not Active | – | – | – | – | –
11 | CN(C)c1nc(N(C)C)nc(N(C)C)n1 [ALTRETAMINE] | Not Active | Not Active | Not Active | Not Active | Not Active | – | – | Not Active | Not Active | Not Active | Not Active | – | – | – | – | –
12 | Nc1c(Br)cc(Br)cc1CN[C@H]1CC[C@H](O)CC1 [AMBROXOL] | Not Active | Not Active | Not Active | Not Active | Not Active | – | – | Not Active | Not Active | Not Active | Not Active | – | – | – | – | –
13 | NCCCCCC(=O)O [AMINOCAPROIC ACID] | Not Active | Not Active | Not Active | Not Active | Not Active | Not Active | Not Active | Not Active | Not Active | Not Active | Not Active | – | – | – | – | –
14 | CCC1(c2ccc(N)cc2)CCC(=O)NC1=O (stereo not drawn) [AMINOGLUTETHIMIDE] | Not Active | Not Active | Not Active | Not Active | Not Active | Not Active | Not Active | Not Active | Not Active | Not Active | Not Active | – | – | – | – | –
15 | Cc1ccc(/N=C/N(C)/C=N/c2ccc(C)cc2C)c(C)c1 [AMITRAZ] | Not Active | Not Active | Not Active | Not Active | Not Active | Not Active | Not Active | Not Active | Not Active | Not Active | Not Active | – | – | – | – | –
16 | CCOC(=O)C1=C(COCCN)NC(C)=C(C(=O)OC)C1c1ccccc1Cl (stereo not drawn) [AMLODIPINE] | Not Active | Not Active | Not Active | Not Active | Not Active | Not Active | Not Active | Not Active | Not Active | Not Active | Not Active | – | – | – | – | –
17 | COc1ccc(C[C@H]2NC[C@H](O)[C@H]2OC(C)=O)cc1 [ANISOMYCIN] | Not Active | Not Active | Not Active | Not Active | Not Active | Not Active | Not Active | Not Active | Not Active | Not Active | Not Active | – | – | Not Active | Not Active | Not Active
18 | Nc1ncn([C@@H]2O[C@H](CO)[C@@H](O)[C@H]2O)c(=O)n1 [AZACITIDINE] | Not Active | Not Active | Not Active | Not Active | Not Active | Not Active | Not Active | Not Active | Not Active | Not Active | Not Active | – | – | – | – | –
19 | CN(C)C(=O)Oc1cc(OC(=O)N(C)C)cc(C(O)CNC(C)(C)C)c1 (stereo not drawn) [BAMBUTEROL] | Not Active | Not Active | Not Active | Not Active | Not Active | Not Active | Not Active | Not Active | Not Active | Not Active | Not Active | – | – | – | – | –
20 | c1ccc2c(c1)c1cccc3ccc4cccc2c4c31 [BENZO[E]PYRENE] | Not Active | Not Active | Not Active | Not Active | Not Active | Not Active | Not Active | Not Active | Not Active | Not Active | Not Active | – | – | – | – | –
21 | CNCCc1ccccn1 [BETAHISTINE] | Not Active | Not Active | Not Active | Not Active | Not Active | Not Active | Not Active | Not Active | Not Active | Not Active | Not Active | – | – | – | – | –
22 | C[C@]12CC[C@@H]3c4ccc(O)cc4CC[C@H]3[C@@H]1CCC2=O [ESTRONE] | Not Active | Not Active | Not Active | Not Active | Not Active | – | – | Not Active | Not Active | Not Active | Not Active | – | – | – | – | –
23 | N=C(N)NCCN1CCCCCCC1 [GUANETHIDINE] | Not Active | Not Active | Not Active | Not Active | Not Active | – | – | Not Active | Not Active | Not Active | Not Active | – | – | – | – | –
24 | CC1(C)S[C@@H]2[C@H](NC(=O)Cc3ccccc3)C(=O)N2[C@H]1C(=O)O [PENICILLIN G] | Not Active | Not Active | Not Active | Not Active | Not Active | – | – | Not Active | Not Active | Not Active | Not Active | – | – | – | – | –

— ChEMBL document CHEMBL1909046, “DrugMatrix in vitro pharmacology data”
